Results taken from PubChem BioAssay (NCI).
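Five concentrations, 48 hours, 96-well plates. GI50 = concentration required for 50% inhibition of growth. TGI marks complete inhibition of growth.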

How the values were obtained:
Test in all cases: growth of human tumour cells (NCI), 48 h
EKVX NSCLC = system: EKVX NSCLC
HCT-15 colon = system: HCT-15 colon
NCI-H460 lung = system: NCI-H460 lung
OVCAR-3 ovarian = system: OVCAR-3 ovarian
OVCAR-4 ovarian = system: OVCAR-4 ovarian
OVCAR-5 ovarian = system: OVCAR-5 ovarian
SK-MEL-2 melanoma = system: SK-MEL-2 melanoma
SK-MEL-28 melanoma = system: SK-MEL-28 melanoma
SK-OV-3 ovarian = system: SK-OV-3 ovarian
TK-10 renal = system: TK-10 renal

## COc1ncc(-c2ccc3ncnc(Nc4cccc(Cl)c4)c3c2)cc1NS(C)(=O)=O
EKVX NSCLC
  GI50: 0.579 µM
  TGI: 9.65 µM
HCT-15 colon
  GI50: 1.66 µM
  TGI: 13.2 µM
NCI-H460 lung
  GI50: 1.87 µM
  TGI: > 100 µM
OVCAR-3 ovarian
  GI50: 1.17 µM
  TGI: 7.7 µM
OVCAR-4 ovarian
  GI50: 4.97 µM
  TGI: 64.3 µM
OVCAR-5 ovarian
  GI50: 0.273 µM
  TGI: 6.51 µM
SK-MEL-2 melanoma
  GI50: 2.27 µM
  TGI: 8.25 µM
SK-MEL-28 melanoma
  GI50: 1.81 µM
  TGI: 41.3 µM
SK-OV-3 ovarian
  GI50: 0.813 µM
  TGI: 4.16 µM
TK-10 renal
  GI50: 0.183 µM
  TGI: 1.4 µM

## COc1cc(-c2cn(-c3ccc(F)cc3)c(=O)[nH]2)cc(OC)c1OC
EKVX NSCLC
  GI50: > 100 µM
  TGI: > 100 µM
HCT-15 colon
  GI50: > 100 µM
  TGI: > 100 µM
NCI-H460 lung
  GI50: > 100 µM
  TGI: > 100 µM
OVCAR-3 ovarian
  GI50: > 100 µM
  TGI: > 100 µM
OVCAR-4 ovarian
  GI50: > 100 µM
  TGI: > 100 µM
OVCAR-5 ovarian
  GI50: > 100 µM
  TGI: > 100 µM
SK-MEL-2 melanoma
  GI50: > 100 µM
  TGI: > 100 µM
SK-MEL-28 melanoma
  GI50: > 100 µM
  TGI: > 100 µM
SK-OV-3 ovarian
  GI50: > 100 µM
  TGI: > 100 µM
TK-10 renal
  GI50: > 100 µM
  TGI: > 100 µM

## CCOC(=O)CC1C(CNC(=O)NC)OC(n2cnc3c(NC(=O)Nc4ccccc4)ncnc32)C1O[Si](C)(C)C(C)(C)C (stereo not given)
EKVX NSCLC
  GI50: 17.7 µM
  TGI: > 100 µM
HCT-15 colon
  GI50: 8.5 µM
  TGI: > 100 µM
NCI-H460 lung
  GI50: 5.53 µM
  TGI: 25 µM
OVCAR-3 ovarian
  GI50: 4.59 µM
  TGI: 17.2 µM
OVCAR-4 ovarian
  GI50: 12.3 µM
  TGI: > 100 µM
OVCAR-5 ovarian
  GI50: 31.1 µM
  TGI: > 100 µM
SK-MEL-2 melanoma
  GI50: 5.42 µM
  TGI: 33.1 µM
SK-MEL-28 melanoma
  GI50: 6.85 µM
  TGI: 20.2 µM
SK-OV-3 ovarian
  GI50: 21 µM
  TGI: > 100 µM
TK-10 renal
  GI50: 12.4 µM
  TGI: 40.5 µM

## CCCCCCCCCCCc1cc(=O)c2c(O)cccc2o1
EKVX NSCLC
  TGI: > 100 µM
HCT-15 colon
  TGI: > 100 µM
NCI-H460 lung
  TGI: > 100 µM
OVCAR-3 ovarian
  TGI: > 100 µM
OVCAR-4 ovarian
  TGI: > 100 µM
OVCAR-5 ovarian
  TGI: > 100 µM
SK-MEL-2 melanoma
  TGI: > 100 µM
SK-MEL-28 melanoma
  TGI: > 100 µM
SK-OV-3 ovarian
  TGI: > 100 µM
TK-10 renal
  TGI: > 100 µM

## N#Cc1cc2c(=S)[nH]c(=S)[nH]c2nc1SCc1ccccc1
EKVX NSCLC
  GI50: 63.3 µM
  TGI: > 100 µM
HCT-15 colon
  GI50: 33.4 µM
  TGI: > 100 µM
NCI-H460 lung
  GI50: 38.8 µM
  TGI: > 100 µM
OVCAR-3 ovarian
  GI50: 65.5 µM
  TGI: > 100 µM
OVCAR-4 ovarian
  GI50: 39.2 µM
  TGI: > 100 µM
OVCAR-5 ovarian
  GI50: 76.2 µM
  TGI: > 100 µM
SK-MEL-2 melanoma
  GI50: 66.7 µM
  TGI: > 100 µM
SK-MEL-28 melanoma
  GI50: 69.7 µM
  TGI: > 100 µM
SK-OV-3 ovarian
  GI50: > 100 µM
  TGI: > 100 µM
TK-10 renal
  GI50: 12.3 µM
  TGI: 65 µM

## CCOc1cc(CCNC)c2c(ccc3ccc(OC)c(O)c32)c1OC
EKVX NSCLC
  TGI: 36.3 µM
HCT-15 colon
  TGI: 35.7 µM
NCI-H460 lung
  TGI: 32.9 µM
OVCAR-3 ovarian
  TGI: 29.8 µM
OVCAR-4 ovarian
  TGI: 27.2 µM
OVCAR-5 ovarian
  TGI: 29.5 µM
SK-MEL-2 melanoma
  TGI: 34.2 µM
SK-MEL-28 melanoma
  TGI: 37.8 µM
SK-OV-3 ovarian
  TGI: 27.5 µM
TK-10 renal
  TGI: 32.7 µM

## COC(=O)C[C@@H]1CC=CC(=O)/C1=C(O)/C=C/c1ccccc1
EKVX NSCLC
  GI50: 1.85 µM
  TGI: 3.91 µM
HCT-15 colon
  GI50: 0.294 µM
  TGI: 1.15 µM
NCI-H460 lung
  GI50: 2.08 µM
  TGI: 8.2 µM
OVCAR-3 ovarian
  GI50: 0.3 µM
  TGI: 0.93 µM
OVCAR-4 ovarian
  GI50: 1.54 µM
  TGI: 2.96 µM
OVCAR-5 ovarian
  GI50: 1.84 µM
  TGI: 4.57 µM
SK-MEL-2 melanoma
  GI50: 1.63 µM
  TGI: 3.56 µM
SK-MEL-28 melanoma
  GI50: 1.19 µM
  TGI: 2.61 µM
SK-OV-3 ovarian
  GI50: 1.7 µM
  TGI: 3.88 µM
TK-10 renal
  GI50: 0.916 µM
  TGI: 5.69 µM

## Nc1n[nH]c2cc(F)c([C@@H]3Nc4c(F)cc5[nH]ncc5c4[C@H]4C5CCC(C5)[C@@H]34)cc12 (stereo not given in full)
EKVX NSCLC
  GI50: 0.167 µM
  TGI: 23.4 µM
HCT-15 colon
  GI50: 0.111 µM
  TGI: 3.69 µM
NCI-H460 lung
  GI50: 0.117 µM
  TGI: 3.57 µM
OVCAR-3 ovarian
  GI50: 0.105 µM
  TGI: 3.73 µM
OVCAR-4 ovarian
  GI50: 0.566 µM
  TGI: 33.3 µM
OVCAR-5 ovarian
  GI50: 0.175 µM
  TGI: 8.52 µM
SK-MEL-2 melanoma
  GI50: 0.817 µM
  TGI: 9.37 µM
SK-MEL-28 melanoma
  GI50: 3.75 µM
  TGI: 13.4 µM
SK-OV-3 ovarian
  GI50: 0.275 µM
  TGI: 20.7 µM
TK-10 renal
  GI50: 2.27 µM
  TGI: 27.2 µM

## COc1ccc2cn3c4ccc(O)cc4[nH]c(=O)c3c2c1
EKVX NSCLC
  GI50: 0.778 µM
  TGI: 20.7 µM
HCT-15 colon
  GI50: 0.0438 µM
  TGI: 13.2 µM
NCI-H460 lung
  GI50: 0.114 µM
  TGI: 10.8 µM
OVCAR-3 ovarian
  GI50: 0.0474 µM
  TGI: 7.08 µM
OVCAR-4 ovarian
  GI50: 9.51 µM
  TGI: 23.3 µM
OVCAR-5 ovarian
  GI50: 2.72 µM
  TGI: 21.5 µM
SK-MEL-2 melanoma
  GI50: 0.0602 µM
  TGI: 12.8 µM
SK-MEL-28 melanoma
  GI50: 0.0742 µM
  TGI: 17.3 µM
SK-OV-3 ovarian
  GI50: 0.0889 µM
  TGI: 13.9 µM
TK-10 renal
  GI50: 2.19 µM
  TGI: 8.08 µM

## COc1ccccc1C(=O)Nc1ccc(Cl)c(C(=O)OC(C)C)c1
EKVX NSCLC
  TGI: > 100 µM
HCT-15 colon
  TGI: > 100 µM
NCI-H460 lung
  TGI: > 100 µM
OVCAR-3 ovarian
  TGI: > 65.4 µM
OVCAR-4 ovarian
  TGI: > 100 µM
OVCAR-5 ovarian
  TGI: > 83.4 µM
SK-MEL-2 melanoma
  TGI: > 76.8 µM
SK-MEL-28 melanoma
  TGI: > 94.5 µM
SK-OV-3 ovarian
  TGI: > 100 µM
TK-10 renal
  TGI: > 100 µM

## COc1ccc(OC)c(-c2nc3sc(C)cn3c2/C=C2\C(=O)N(C)c3ccccc32)c1
EKVX NSCLC
  GI50: 32.2 µM
  TGI: > 100 µM
HCT-15 colon
  GI50: 19.8 µM
  TGI: 81.6 µM
NCI-H460 lung
  GI50: 18.7 µM
  TGI: 44.2 µM
OVCAR-3 ovarian
  GI50: 23.6 µM
  TGI: 62.3 µM
OVCAR-4 ovarian
  GI50: 34.1 µM
  TGI: > 100 µM
OVCAR-5 ovarian
  GI50: 44.9 µM
  TGI: > 100 µM
SK-MEL-2 melanoma
  GI50: 15.6 µM
  TGI: 43.6 µM
SK-MEL-28 melanoma
  GI50: 19.8 µM
  TGI: 43.6 µM
SK-OV-3 ovarian
  GI50: 28.4 µM
  TGI: 71.4 µM
TK-10 renal
  GI50: 48.3 µM
  TGI: > 100 µM

## COc1ccc(-c2cncn2-c2ccc(-c3nc4cc(OC)c(OC)c(OC)c4s3)cc2)cc1N
EKVX NSCLC
  GI50: 7.54 µM
  TGI: > 100 µM
HCT-15 colon
  GI50: 4.02 µM
  TGI: > 100 µM
NCI-H460 lung
  GI50: 4.69 µM
  TGI: > 100 µM
OVCAR-3 ovarian
  GI50: 5.18 µM
  TGI: > 100 µM
OVCAR-4 ovarian
  GI50: 6.29 µM
  TGI: > 100 µM
OVCAR-5 ovarian
  GI50: > 100 µM
  TGI: > 100 µM
SK-MEL-2 melanoma
  GI50: 6.04 µM
  TGI: > 100 µM
SK-MEL-28 melanoma
  GI50: 13.7 µM
  TGI: > 100 µM
SK-OV-3 ovarian
  GI50: > 100 µM
  TGI: > 100 µM
TK-10 renal
  GI50: 4.16 µM
  TGI: > 100 µM

## COc1ccccc1CNC(=O)/C=C/c1ccc(O)c(O)c1
EKVX NSCLC
  GI50: 48.2 µM
  TGI: > 100 µM
HCT-15 colon
  GI50: 15.6 µM
  TGI: 86.3 µM
NCI-H460 lung
  GI50: 45.9 µM
  TGI: > 100 µM
OVCAR-3 ovarian
  GI50: 67.3 µM
  TGI: > 100 µM
OVCAR-4 ovarian
  GI50: 40 µM
  TGI: > 100 µM
OVCAR-5 ovarian
  GI50: > 100 µM
  TGI: > 100 µM
SK-MEL-2 melanoma
  GI50: > 100 µM
  TGI: > 100 µM
SK-MEL-28 melanoma
  GI50: 89 µM
  TGI: > 100 µM
SK-OV-3 ovarian
  GI50: 38.2 µM
  TGI: > 100 µM
TK-10 renal
  GI50: 17.9 µM
  TGI: > 100 µM

## C=C(C)[C@@H]1CC[C@]2(COC(=O)c3ccccc3C(=O)O)CC[C@]3(C)[C@H](CC[C@@H]4[C@@]5(C)CC[C@H](OC(=O)c6ccccc6C(=O)O)C(C)(C)[C@@H]5CC[C@]43C)[C@@H]12
EKVX NSCLC
  GI50: 37.4 µM
  TGI: > 100 µM
HCT-15 colon
  GI50: 31.3 µM
  TGI: > 100 µM
NCI-H460 lung
  GI50: 85.1 µM
  TGI: > 100 µM
OVCAR-3 ovarian
  GI50: 17.5 µM
  TGI: 49.3 µM
OVCAR-4 ovarian
  GI50: 36.7 µM
  TGI: > 100 µM
OVCAR-5 ovarian
  GI50: > 100 µM
  TGI: > 100 µM
SK-MEL-2 melanoma
  GI50: 20.6 µM
  TGI: 54.1 µM
SK-MEL-28 melanoma
  GI50: 95.5 µM
  TGI: > 100 µM
SK-OV-3 ovarian
  GI50: 35.8 µM
  TGI: > 100 µM
TK-10 renal
  GI50: 24.8 µM
  TGI: 63.3 µM
